Test results taken from patent US11337983B2, “Dactinomycin compositions and methods for the treatment of acute myeloid leukemia” (priority 2015, dated 2022).
Entries after “also recorded” stand apart in the source; their conditions may differ. *1 amine or outer side, *2 acyl side, *3 side chain or, on linkers, in order; H or OH if unused. Where a SMILES comes first, the peptide text is derived from it. Bridges are numbered along the chain shown (N, C = ends). Roman numbers before positions name the chains, in order. [ ]: non-standard residue; d: D form. Actinocin(9to1) = Cc1c2oc3c(C)ccc(C(=O)[*:1])c3nc-2c(C(=O)[*:2])c(N)c1=O; NMeV = CN[CH](C(=O)O)C(C)C; Sar = CNCC(=O)O

Tests used:
Type in all cases: in vivo, human
[1] = Adverse events and hematologic toxic effects during dactinomycin treatment of the patient
Protocol: (§1) A patient with NPM1-mutated AML without FLT3 internal tandem duplication mutations was treated with dactinomycin. Because dactinomycin lacks cardiotoxicity, a patient was selected for whom intensive chemotherapy was not appropriate owing to a low left ventricular ejection fraction (35%). […] Therefore, with the patient's consent, dactinomycin was administered as an off-label single agent (approved by the institutional review board at Perugia Hospital), at a dose of 12.5 μg per kilogram of body weight per day for 5 consecutive days, as recommended for low-risk gestational trophoblastic tumors. […] Four more cycles were administered for a total of six cycles, at intervals of 3 to 4 weeks.
The number of days with a hemoglobin level of less than 8 g per deciliter, severe thrombocytopenia (a platelet count of <20,000 per cubic millimeter), and severe neutropenia (a neutrophil count of <500 per cubic millimeter) are reported for cycles 1 through 6. A total of 8 units of red cells and 4 units of platelets were transfused during cycle 1, and 4 units of red cells and 1 unit of platelets were transfused during cycle 2.

[2] = system: refractory or relapsed NPM1-mutated AML; assay: Dactinomycin treatment of six additional patients with refractory or relapsed NPM1-mutated AML; details: 15.0 μg per kilogram per day for 5 consecutive days, cycles
Protocol: Six additional patients with refractory or relapsed NPM1-mutated AML were treated with cycles of dactinomycin at a dose of 15.0 μg per kilogram per day for 5 consecutive days.

[3] = system: NPM1-mutated AML without FLT3 internal tandem duplication mutations; assay: Dactinomycin single-agent treatment of a patient with NPM1-mutated AML (response)
Protocol: as §1
The progressive decrease in NPM1 mutant transcripts (until the achievement of negativity for minimal residual disease) is reminiscent of dactinomycin-induced normalization of serum levels of human chorionic gonadotropin in patients with gestational trophoblastic tumors.

[4] = after two cycles of dactinomycin

Cc1c2oc3c(C)ccc(C(=O)NC4C(=O)NC(C(C)C)C(=O)N5CCCC5C(=O)N(C)CC(=O)N(C)C(C(C)C)C(=O)OC4C)c3nc-2c(C(=O)NC2C(=O)NC(C(C)C)C(=O)N3CCCC3C(=O)N(C)CC(=O)N(C)C(C(C)C)C(=O)OC2C)c(N)c1=O (stereo not shown) [dactinomycin, 2-amino-N,N′-bis(hexadecahydro-2,5,9-trimethyl-6,13-bis(1-methylethyl)-1,4,7,11,14-pentaoxo-1H-pyrrolo(2,1-I)(1,4,7,10,13)oxatetra-azacyclohexadecin-10-yl)-4,6-dimethyl-3-oxo-3H-phenoxazine-1,9-dicarboxamide] (I: TVP[Sar][NMeV] / II: TVP[Sar][NMeV]; ester I:1-I:C, II:1-II:C; linker I:N-II:N via Actinocin(9to1); configuration not given here)
Need for red-cell or platelet transfusions ([1]; after cycle 2 (cycles 3 through 6)): no need for blood transfusions; also recorded: No red-cell or platelet transfusions were necessary
Number of days with Hb <8 g/dl ([1]; cycle 1): 3 days
Number of days with PLT <20000/mm^3 ([1]; cycle 1): 13 days
Number of days with PMN <500/mm^3 ([1]; cycle 1): 26 days
Platelets transfused ([1]; cycle 1): 4 units
Red cells transfused ([1]; cycle 1): 8 units
Number of days with Hb <8 g/dl ([1]; cycle 2): 3 days
Number of days with PLT <20000/mm^3 ([1]; cycle 2): 2 days
Number of days with PMN <500/mm^3 ([1]; cycle 2): 6 days
Platelets transfused ([1]; cycle 2): 1 unit
Red cells transfused ([1]; cycle 2): 4 units
Number of days with Hb <8 g/dl ([1]; cycle 3): 0 days
Number of days with PLT <20000/mm^3 ([1]; cycle 3): 0 days
Number of days with PMN <500/mm^3 ([1]; cycle 3): 4 days
Number of days with Hb <8 g/dl ([1]; cycle 4): 0 days
Number of days with PLT <20000/mm^3 ([1]; cycle 4): 0 days
Number of days with PMN <500/mm^3 ([1]; cycle 4): 4 days
Number of days with Hb <8 g/dl ([1]; cycle 5): 0 days
Number of days with PLT <20000/mm^3 ([1]; cycle 5): 0 days
Number of days with PMN <500/mm^3 ([1]; cycle 5): 4 days
Number of days with Hb <8 g/dl ([1]; cycle 6): 0 days
Number of days with PLT <20000/mm^3 ([1]; cycle 6): 0 days
Number of days with PMN <500/mm^3 ([1]; cycle 6): 3 days
Skin adverse event ([1]; during cycle 2): superficial skin erosions
Febrile neutropenia and thrombocytopenia (adverse event grade) ([1]; during cycles 1 and 2): 4 grade
Oral mucositis (adverse event grade) ([1]; during cycles 1 through 3): 2 grade
Hematologic complete remission (patients of six treated) [2]: achieved in two patients
Morphologic and immunohistochemical (hematologic) complete remission ([3]; 12.5 μg per kilogram per day for 5 consecutive days per cycle, patient): hematologic complete remission; also recorded: complete remission was achieved after two cycles of therapy
Immunostaining with anti-NPM1 monoclonal antibody of bone marrow cells [3, 4]: nucleus-restricted positivity for NPM1
Leukemic blasts in bone marrow aspirate (MGG staining) [3, 4]: less than 5%
Molecular complete remission / negativity for minimal residual disease (quantitative RT-PCR for mutant copies of NPM1) ([3]; bone marrow samples, 12.5 μg/kg/day x 5 days per cycle): Negativity for minimal residual disease was achieved after the fourth cycle; also recorded: molecular complete remission after the fourth cycle
Mutant copies of NPM1 in bone marrow samples (RT-PCR, copies per 100 copies of Abl) ([3]; during dactinomycin treatment): progressive reduction in copies
Duration of morphologic and molecular complete remission ([3]; six cycles at intervals of 3 to 4 weeks): 14 months

Nc1ncn([C@@H]2O[C@H](CO)[C@@H](O)[C@H]2O)c(=O)n1 [azacitidine]
Course of leukemia after prior therapy ([3]; initial single cycle of azacitidine, before dactinomycin): Leukemia had progressed
